Reference: patent publication US4112228A, “7-(D-α-Hydroxy-2-arylacetamido)-3-(2-carboxyalkyl-2,3-dihydro-s-tri azolo-[4,3-b]pyridazin-3-on-6-ylthiomethyl)-3-cephem-4-carboxylic acids and derivatives” (priority 1977, dated 1978)
In brackets after ≈: the same amount, converted by molar mass. Where two headings read alike, the source gives them in different places.

Experiments:
Sal. typhosa = assay: MIC by Steers' agar dilution method; assay type: cell-based; details: MHA
K. pneumoniae A9977 = assay: Standard experimental infection in mice; assay type: in vivo; details: for ED50: Klebsiella pneumoniae, A9977, read-out: PD50
P. inconstans = assay: MIC by Steers' agar dilution method; details: Providencia alcalifaciens
Klebsiella sp. = assay: MIC by Steers' agar dilution method
Pr. mirabilis = assay: MIC by Steers' agar dilution method; details: Proteus mirabilis
Urinary recovery in rats = assay type: in vivo; details: rat, urine, sc 10 mg./kg., 0-24 Hrs.
[1] = test system: P. mirabilis A9900 (Pm-2); assay: Standard experimental infection (single sc treatment); details: for No. of survivors/No. tested: Run C-810, 1×10^3 LD50, single sc
P. stuartii = assay: MIC by Steers' agar dilution method; details: Providencia stuartii
Enterob. cloacae = assay: MIC by Steers' agar dilution method

O=C(O)Cn1nc2ccc(SCC3=C(C(=O)O)N4C(=O)C(NC(=O)[C@H](O)c5ccccc5)[C@H]4SC3)nn2c1=O (stereo partly drawn) [BB-S488, 7-(D-Mandelamido)-3-(2-carboxymethyl-2,3-dihydro-s-triazolo[4,3-b]pyridazin-3-on-6-ylthiomethyl)-3-cephem-4-carboxylic Acid]
MIC (Sal. typhosa; A9498, Table 1): 0.05 µg/mL (≈ 0.0873 µM) | MIC (Sal. typhosa; Example 10): 0.05 µg/mL (≈ 0.0873 µM) | No. of survivors/No. tested (K. pneumoniae A9977; 0.1 mg./kg., Table 6): 0/5 | No. of survivors/No. tested (K. pneumoniae A9977; 0.4 mg./kg., Table 6): 4/5 | No. of survivors/No. tested (K. pneumoniae A9977; 1.6 mg./kg., Table 6): 5/5 | No. of survivors/No. tested (K. pneumoniae A9977; 6.3 mg./kg., Table 6): 5/5 | No. of survivors/No. tested (K. pneumoniae A9977; 25 mg./kg., Table 6): 5/5 | ED50 (K. pneumoniae A9977; Run C-805, 3×10^3 LD50, single sc): 0.26 mg/kg | ED50 (K. pneumoniae A9977; Table 6): 0.26 mg/kg | No. of survivors/No. tested (K. pneumoniae A9977; Run C-805, 3×10^3 LD50, single sc, 0.1 mg./kg.): 0/5 | No. of survivors/No. tested (K. pneumoniae A9977; Run C-805, 3×10^3 LD50, single sc, 0.4 mg./kg.): 4/5 | No. of survivors/No. tested (K. pneumoniae A9977; Run C-805, 3×10^3 LD50, single sc, 1.6 mg./kg.): 5/5 | No. of survivors/No. tested (K. pneumoniae A9977; Run C-805, 3×10^3 LD50, single sc, 6.3 mg./kg.): 5/5 | No. of survivors/No. tested (K. pneumoniae A9977; Run C-805, 3×10^3 LD50, single sc, 25 mg./kg.): 5/5 | MIC (P. inconstans): 0.1 µg/mL (≈ 0.175 µM) | MIC (Klebsiella sp.; Kx-2 A9662, MHA, Table 3): 0.4 µg/mL (≈ 0.699 µM) | MIC (Klebsiella sp.; Kx-3 A20346 (β-lactamase), HIA, Table 4): 0.2 µg/mL (≈ 0.349 µM) | MIC (Klebsiella sp.; Kx-3 A20346 (β-lactamase), MHA, Table 4): 0.2 µg/mL (≈ 0.349 µM) | MIC (Klebsiella sp.; Kx-3 A20346 (β-lactamase), NA, Table 4): 0.2 µg/mL (≈ 0.349 µM) | MIC (Klebsiella sp.; Kx-3 A20346, MHA, Table 3): 0.2 µg/mL (≈ 0.349 µM) | MIC (Pr. mirabilis; A9554, MHA, Table 1): 0.05 µg/mL (≈ 0.0873 µM) | MIC (Pr. mirabilis; A9900, MHA, Table 1): 0.1 µg/mL (≈ 0.175 µM) | MIC (Pr. mirabilis; Pm-1 A9554, HIA, Table 4): 0.1 µg/mL (≈ 0.175 µM) | MIC (Pr. mirabilis; Pm-1 A9554, MHA, Table 3): 0.1 µg/mL (≈ 0.175 µM) | MIC (Pr. mirabilis; Pm-1 A9554, MHA, Table 4): 0.1 µg/mL (≈ 0.175 µM) | MIC (Pr. mirabilis; Pm-1 A9554, NA, Table 4): 0.1 µg/mL (≈ 0.175 µM) | MIC (Pr. mirabilis; Pm-2 A9900, HIA, Table 4): 0.2 µg/mL (≈ 0.349 µM) | MIC (Pr. mirabilis; Pm-2 A9900, MHA, Table 3): 0.2 µg/mL (≈ 0.349 µM) | MIC (Pr. mirabilis; Pm-2 A9900, MHA, Table 4): 0.2 µg/mL (≈ 0.349 µM) | MIC (Pr. mirabilis; Pm-2 A9900, NA, Table 4): 0.1 µg/mL (≈ 0.175 µM) | MIC (Pr. mirabilis; Pm-3 A20119, MHA, Table 3): 0.4 µg/mL (≈ 0.699 µM) | MIC (Pr. mirabilis; Pm-4 A20454, MHA, Table 3): 0.2 µg/mL (≈ 0.349 µM) | MIC (Pr. mirabilis; Pm-5 A9702, MHA, Table 3): 0.1 µg/mL (≈ 0.175 µM) | MIC (Pr. mirabilis; Pm-6 A21222, MHA, Table 3): 1.6 µg/mL (≈ 2.79 µM) | MIC (Pr. mirabilis; strain not given (1st of 2), MHA, Example 10): 0.05 µg/mL (≈ 0.0873 µM) | MIC (Pr. mirabilis; strain not named (2nd of 2), MHA, Example 10): 0.05 µg/mL (≈ 0.0873 µM) | dose excreted at 24 h (Urinary recovery in rats): 38.8% | ED50 ([1]; Proteus mirabilis, in Mus musculus, sc, read-out: PD50): 1.1 mg/kg | No. of survivors/No. tested ([1]; 0.1 mg./kg.): 0/5 | No. of survivors/No. tested ([1]; 0.4 mg./kg.): 0/5 | No. of survivors/No. tested ([1]; 1.6 mg./kg.): 4/5 | No. of survivors/No. tested ([1]; 6.3 mg./kg.): 5/5 | No. of survivors/No. tested ([1]; 25 mg./kg.): 5/5 | MIC (P. stuartii; Ps-1 A20745, HIA, Table 4): 50 µg/mL (≈ 87.3 µM) | MIC (P. stuartii; Ps-1 A20745, MHA, Table 3): 0.4 µg/mL (≈ 0.699 µM) | MIC (P. stuartii; Ps-1 A20745, MHA, Table 4): 12.5 µg/mL (≈ 21.8 µM) | MIC (P. stuartii; Ps-1 A20745, NA, Table 4): 50 µg/mL (≈ 87.3 µM) | MIC (P. stuartii; Ps-2 A20894, HIA, Table 4): 0.4 µg/mL (≈ 0.699 µM) | MIC (P. stuartii; Ps-2 A20894, MHA, Table 3): 0.2 µg/mL (≈ 0.349 µM) | MIC (P. stuartii; Ps-2 A20894, MHA, Table 4): 0.2 µg/mL (≈ 0.349 µM) | MIC (P. stuartii; Ps-2 A20894, NA, Table 4): 0.8 µg/mL (≈ 1.4 µM) | MIC (P. stuartii; Ps-3 A20911 (β-lactamase), HIA, Table 4): 25 µg/mL (≈ 43.7 µM) | MIC (P. stuartii; Ps-3 A20911 (β-lactamase), MHA, Table 4): 12.5 µg/mL (≈ 21.8 µM) | MIC (P. stuartii; Ps-3 A20911 (β-lactamase), NA, Table 4): 50 µg/mL (≈ 87.3 µM) | MIC (P. stuartii; Ps-3 A20911, MHA, Table 3): 0.8 µg/mL (≈ 1.4 µM) | MIC (P. stuartii; Ps-4 A21051, MHA, Table 3): 50 µg/mL (≈ 87.3 µM) | MIC (P. stuartii; Ps-5 A21057, MHA, Table 3): 0.2 µg/mL (≈ 0.349 µM) | MIC (Enterob. cloacae; A9656, MHA, Table 1): 3.1 µg/mL (≈ 5.41 µM) | MIC (Enterob. cloacae; El-1 A9656, HIA, Table 4): 6.3 µg/mL (≈ 11 µM) | MIC (Enterob. cloacae; El-1 A9656, MHA, Table 3): 3.1 µg/mL (≈ 5.41 µM) | MIC (Enterob. cloacae; El-1 A9656, MHA, Table 4): 3.1 µg/mL (≈ 5.41 µM) | MIC (Enterob. cloacae; El-1 A9656, NA, Table 4): 12.5 µg/mL (≈ 21.8 µM) | MIC (Enterob. cloacae; El-2 A20364 (β-lactamase), HIA, Table 4): 6.3 µg/mL (≈ 11 µM)
